According to patent US10266609B2, “Immunomodulating beta-1,6-D-glucans” (Innate Biotherapeutics, LLC, priority 2014, dated 2019):

system: Anti-β-1,6-Glucan IgG antibodies (affinity purified from IVIG, Baxter); test: ELISA: binding of oligosaccharides to anti-β-1,6-glucan antibodies; conditions: plate coated with oligosaccharide in PBS; 40 ug/mL anti-Beta 1,6 Glucan IgG; anti-human IgG-HRP, TMB, absorbance at 620 nm; note: key: a plus (+) sign indicates that the glucan was active in the assay; a minus (−) sign indicates that the glucan was not active; the '+/−' symbol indicates inconclusive results
Protocol: Binding of oligosaccharides to anti-β-1,6-glucan antibodies is performed as described in the following protocol.
• 1. […] Anti-β-1,6-Glucan IgG antibodies (affinity purified from IVIG, Baxter) • 6. […] PBS-Tween buffer (PH 7.2, 0.05% Tween 20, Kpl cat #51-12-01) II. Method: Detection of Anti-Beta Glucan IgG by ELISA • 1. Coat plate with oligosaccharides in PBS overnight at 4° C. • 2. Wash 3 times with 250 uL of PBS-Tween • 3. Empty plate • 4. Block plate with 200 uL of Casein for 1 hour at room temperature • 5. Empty plate • 6. Add 40 ug/mL anti-Beta 1,6 Glucan IgG (4 ug/well) in Casein • 7. Incubate for 45 min at room temperature • 8. Wash 3 times with 250 uL of PBS-Tween • 9. Empty plate • 10. Add detection antibody: anti-human IgG-HRP at 1:5000—in casein. Incubate for 45 min at room temperature in the dark • 11. Wash 5 times with 250 uL of PBS-Tween • 12. Empty plate • 13. Add 100 uL of one step ultra TMB • 14. Measure the absorbance at 620 nm every 1 min for 60 min Tables 1-3 provide ELISA assay data for certain glucan compounds.

ELISA assay data: glucan active in detection of anti-beta glucan IgG, +:
O=C(O)c1cc(OCc2cn(CCO[C@@H]3O[C@H](CO[C@@H]4O[C@H](CO[C@@H]5O[C@H](CO[C@@H]6O[C@H](CO[C@@H]7O[C@H](CO)[C@@H](O)[C@H](O)[C@H]7O)[C@@H](O)[C@H](O)[C@H]6O)[C@@H](O)[C@H](O)[C@H]5O)[C@@H](O)[C@H](O)[C@H]4O)[C@@H](O)[C@H](O)[C@H]3O)nn2)cc(OCc2cn(CCO[C@@H]3O[C@H](CO[C@@H]4O[C@H](CO[C@@H]5O[C@H](CO[C@@H]6O[C@H](CO[C@@H]7O[C@H](CO)[C@@H](O)[C@H](O)[C@H]7O)[C@@H](O)[C@H](O)[C@H]6O)[C@@H](O)[C@H](O)[C@H]5O)[C@@H](O)[C@H](O)[C@H]4O)[C@@H](O)[C@H](O)[C@H]3O)nn2)c1 [(β-D-glucopyanosy1-1,6)nβ-O(CH2)2-, n=5, 3,5-bis(1[2-[O-β-D-glucopyranosyl-(1→6)]5oxy]ethyl-1H-1,2,3-triazol-4-yl)methoxybenzoic acid]
O=C(O)c1cc(OCc2cn(CCO[C@@H]3O[C@H](CO[C@@H]4O[C@H](CO[C@@H]5O[C@H](CO[C@@H]6O[C@H](CO[C@@H]7O[C@H](CO[C@@H]8O[C@H](CO)[C@@H](O)[C@H](O)[C@H]8O)[C@@H](O)[C@H](O)[C@H]7O)[C@@H](O)[C@H](O)[C@H]6O)[C@@H](O)[C@H](O)[C@H]5O)[C@@H](O)[C@H](O)[C@H]4O)[C@@H](O)[C@H](O)[C@H]3O)nn2)cc(OCc2cn(CCO[C@@H]3O[C@H](CO[C@@H]4O[C@H](CO[C@@H]5O[C@H](CO[C@@H]6O[C@H](CO[C@@H]7O[C@H](CO[C@@H]8O[C@H](CO)[C@@H](O)[C@H](O)[C@H]8O)[C@@H](O)[C@H](O)[C@H]7O)[C@@H](O)[C@H](O)[C@H]6O)[C@@H](O)[C@H](O)[C@H]5O)[C@@H](O)[C@H](O)[C@H]4O)[C@@H](O)[C@H](O)[C@H]3O)nn2)c1 [(β-D-glucopyanosy1-1,6)nβ-O(CH2)2-, n=6, 3,5-bis(1[2-[O-β-D-glucopyranosyl-(1→6)]6oxy]ethyl-1H-1,2,3-triazol-4-yl)methoxybenzoic acid]
COC1O[C@H](CO[C@@H]2O[C@H](CO[C@@H]3O[C@H](CO)[C@@H](O)[C@H](O)[C@H]3O)[C@@H](O)[C@H](O)[C@H]2O)[C@@H](O)[C@H](O)[C@H]1O (stereo partly drawn) [OCH3, n=3, methyl [O-β-D-glucopyranosyl-1,6]2-D-glucopyranoside]
COC1O[C@H](CO[C@@H]2O[C@H](CO[C@@H]3O[C@H](CO[C@@H]4O[C@H](CO)[C@@H](O)[C@H](O)[C@H]4O)[C@@H](O)[C@H](O)[C@H]3O)[C@@H](O)[C@H](O)[C@H]2O)[C@@H](O)[C@H](O)[C@H]1O (stereo partly drawn) [OCH3, n=4, methyl [O-β-D-glucopyranosyl-1,6]3-D-glucopyranoside]
COC1O[C@H](CO[C@@H]2O[C@H](CO[C@@H]3O[C@H](CO[C@@H]4O[C@H](CO[C@@H]5O[C@H](CO)[C@@H](O)[C@H](O)[C@H]5O)[C@@H](O)[C@H](O)[C@H]4O)[C@@H](O)[C@H](O)[C@H]3O)[C@@H](O)[C@H](O)[C@H]2O)[C@@H](O)[C@H](O)[C@H]1O (stereo partly drawn) [OCH3, n=5, methyl [O-β-D-glucopyranosyl-1,6-]4-D-glucopyranoside]
CO[C@H]1O[C@H](CO[C@@H]2O[C@H](CO[C@@H]3O[C@H](CO[C@@H]4O[C@H](CO[C@@H]5O[C@H](CO[C@@H]6O[C@H](CO)[C@@H](O)[C@H](O)[C@H]6O)[C@@H](O)[C@H](O)[C@H]5O)[C@@H](O)[C@H](O)[C@H]4O)[C@@H](O)[C@H](O)[C@H]3O)[C@@H](O)[C@H](O)[C@H]2O)[C@@H](O)[C@H](O)[C@H]1O [OCH3, n=6, methyl [O-β-D-glucopyranosyl-1,6]5-D-glucopyranoside]
COC1O[C@H](CO[C@@H]2O[C@H](CO[C@@H]3O[C@H](CO[C@@H]4O[C@H](CO[C@@H]5O[C@H](CO[C@@H]6O[C@H](CO[C@@H]7O[C@H](CO)[C@@H](O)[C@H](O)[C@H]7O)[C@@H](O)[C@H](O)[C@H]6O)[C@@H](O)[C@H](O)[C@H]5O)[C@@H](O)[C@H](O)[C@H]4O)[C@@H](O)[C@H](O)[C@H]3O)[C@@H](O)[C@H](O)[C@H]2O)[C@@H](O)[C@H](O)[C@H]1O (stereo partly drawn) [OCH3, n=7, methyl [O-β-D-glucopyranosyl-1,6]6-D-glucopyranoside]
COC1O[C@H](CO[C@@H]2O[C@H](CO[C@@H]3O[C@H](CO[C@@H]4O[C@H](CO[C@@H]5O[C@H](CO[C@@H]6O[C@H](CO[C@@H]7O[C@H](CO[C@@H]8O[C@H](CO)[C@@H](O)[C@H](O)[C@H]8O)[C@@H](O)[C@H](O)[C@H]7O)[C@@H](O)[C@H](O)[C@H]6O)[C@@H](O)[C@H](O)[C@H]5O)[C@@H](O)[C@H](O)[C@H]4O)[C@@H](O)[C@H](O)[C@H]3O)[C@@H](O)[C@H](O)[C@H]2O)[C@@H](O)[C@H](O)[C@H]1O (stereo partly drawn) [OCH3, n=8, methyl [O-β-D-glucopyranosyl-1,6]7-D-glucopyranoside]
COC1O[C@H](CO[C@@H]2O[C@H](CO[C@@H]3O[C@H](CO[C@@H]4O[C@H](CO[C@@H]5O[C@H](CO[C@@H]6O[C@H](CO[C@@H]7O[C@H](CO[C@@H]8O[C@H](CO[C@@H]9O[C@H](CO)[C@@H](O)[C@H](O)[C@H]9O)[C@@H](O)[C@H](O)[C@H]8O)[C@@H](O)[C@H](O)[C@H]7O)[C@@H](O)[C@H](O)[C@H]6O)[C@@H](O)[C@H](O)[C@H]5O)[C@@H](O)[C@H](O)[C@H]4O)[C@@H](O)[C@H](O)[C@H]3O)[C@@H](O)[C@H](O)[C@H]2O)[C@@H](O)[C@H](O)[C@H]1O (stereo partly drawn) [OCH3, n=9, methyl [O-β-D-glucopyranosyl-1,6]8-D-glucopyranoside]
COC1O[C@H](CO[C@@H]2O[C@H](CO[C@@H]3O[C@H](CO[C@@H]4O[C@H](CO[C@@H]5O[C@H](CO[C@@H]6O[C@H](CO[C@@H]7O[C@H](CO[C@@H]8O[C@H](CO[C@@H]9O[C@H](CO[C@@H]%10O[C@H](CO)[C@@H](O)[C@H](O)[C@H]%10O)[C@@H](O)[C@H](O)[C@H]9O)[C@@H](O)[C@H](O)[C@H]8O)[C@@H](O)[C@H](O)[C@H]7O)[C@@H](O)[C@H](O)[C@H]6O)[C@@H](O)[C@H](O)[C@H]5O)[C@@H](O)[C@H](O)[C@H]4O)[C@@H](O)[C@H](O)[C@H]3O)[C@@H](O)[C@H](O)[C@H]2O)[C@@H](O)[C@H](O)[C@H]1O (stereo partly drawn) [OCH3, n=10, methyl [O-β-D-glucopyranosyl-1,6]9-D-glucopyranoside]
COC1O[C@H](CO[C@@H]2O[C@H](CO[C@@H]3O[C@H](CO[C@@H]4O[C@H](CO[C@@H]5O[C@H](CO[C@@H]6O[C@H](CO[C@@H]7O[C@H](CO[C@@H]8O[C@H](CO[C@@H]9O[C@H](CO[C@@H]%10O[C@H](CO[C@@H]%11O[C@H](CO)[C@@H](O)[C@H](O)[C@H]%11O)[C@@H](O)[C@H](O)[C@H]%10O)[C@@H](O)[C@H](O)[C@H]9O)[C@@H](O)[C@H](O)[C@H]8O)[C@@H](O)[C@H](O)[C@H]7O)[C@@H](O)[C@H](O)[C@H]6O)[C@@H](O)[C@H](O)[C@H]5O)[C@@H](O)[C@H](O)[C@H]4O)[C@@H](O)[C@H](O)[C@H]3O)[C@@H](O)[C@H](O)[C@H]2O)[C@@H](O)[C@H](O)[C@H]1O (stereo partly drawn) [OCH3, n=11, methyl [O-β-D-glucopyranosyl-1,6]10-D-glucopyranoside]
OC[C@H]1O[C@@H](OC[C@H]2OC(O)[C@H](O)[C@@H](O)[C@@H]2O)[C@H](O)[C@@H](O)[C@@H]1O (some centres unmarked) [OH, n=2]
OC[C@H]1O[C@@H](OC[C@H]2O[C@@H](OC[C@H]3OC(O)[C@H](O)[C@@H](O)[C@@H]3O)[C@H](O)[C@@H](O)[C@@H]2O)[C@H](O)[C@@H](O)[C@@H]1O (some centres unmarked) [OH, n=3]
OCC1OC(OCC2OC(OCC3OC(OCC4OC(O)C(O)C(O)C4O)C(O)C(O)C3O)C(O)C(O)C2O)C(O)C(O)C1O (centres unmarked) [OH, n=4]
OCC1OC(OCC2OC(OCC3OC(OCC4OC(OCC5OC(O)C(O)C(O)C5O)C(O)C(O)C4O)C(O)C(O)C3O)C(O)C(O)C2O)C(O)C(O)C1O (centres unmarked) [OH, n=5]
OCC1OC(OCC2OC(OCC3OC(OCC4OC(OCC5OC(OCC6OC(OCC7OC(OCC8OC(O)C(O)C(O)C8O)C(O)C(O)C7O)C(O)C(O)C6O)C(O)C(O)C5O)C(O)C(O)C4O)C(O)C(O)C3O)C(O)C(O)C2O)C(O)C(O)C1O (centres unmarked) [OH, n=8]
OCC1OC(OCC2OC(OCC3OC(OCC4OC(OCC5OC(OCC6OC(OCC7OC(OCC8OC(OCC9OC(O)C(O)C(O)C9O)C(O)C(O)C8O)C(O)C(O)C7O)C(O)C(O)C6O)C(O)C(O)C5O)C(O)C(O)C4O)C(O)C(O)C3O)C(O)C(O)C2O)C(O)C(O)C1O (centres unmarked) [OH, n=9]
